Measurements taken from paper PMC7546081, “A Kunitz-type peptide from Dendroaspis polylepis venom as a simultaneous inhibitor of serine and cysteine proteases” (The Journal of Venomous Animals and Toxins Including …, 2020).
Where two headings read alike, the source gives them in different places. Bridge positions count the residues as written; N and C are the ends. Square brackets hold non-standard residues; d marks the D form. Peptide text beside a SMILES is read from it. * marks the point of attachment. EDDnp = O=[N+]([O-])c1ccc(NCCN*)c([N+](=O)[O-])c1; AMC = Cc1cc(=O)oc2cc(N*)ccc12; 2Abz = Nc1ccccc1C(=O)O; Cbz = O=C(OCc1ccccc1)*

What was measured:
[1] = biological target: T1, recombinant human cathepsin L (Homo sapiens, UniProt P07711); test: Kinetic characterization of cathepsin L inhibition (Michaelis-Menten, Dixon plot); format: biochemical
T1 construct: purchased R&D systems
Procedure: To obtain the Michaelis-Menten constant (Km ) of the Z-FR-MCA hydrolysis by cathepsin L (1 ng), 1 µM, 2.5 µM, 5.0 µM, 7.5 µM, 12.5 µM, 15 µM, 20 µM concentrations of Z-FR-MCA substrate were tested in 50 mM, NaCl 200 mM, EDTA 5 mM, DTT 6.25 mM pH 5.5 buffer (final volume of 100 µL).The reactions were continuously monitored (fluorescence at λEM 480 nm and λEX 360 nm) in a fluorimeter (425-301 Hidex, Finland), as described. The maximum speed (Vmax ) and the Km were obtained in the Grafit 5 software. All experiments were performed in duplicate. To determine the mechanism of inhibition and the inhibition constant (Ki ) of inhibitor PEP2, two concentrations of the Z-FR-MCA, 5.2 µM (2 Km ) and 7.8 (3 Km ), and three concentrations of the inhibitor PEP2, 1 µM, 2.5 µM and 5 µM, were used. Samples without PEP2 for each substrate concentration were utilized. The experiments were carried out in duplicates and the consumption of the substrate was maintained under 10%. The results were analyzed in the Grafit 5 software. The mechanism and the inhibition constants were determined through the Dixon plot (1/V x [I]) equation [20], using the software GraphPad Prism 5.

elastase-1 [2] = biological target: T2, elastase-1 (Sus scrofa, UniProt P00772); test: Kinetic characterization of elastase-1 inhibition (Michaelis-Menten, Dixon plot); format: biochemical; conditions: for Elastase inhibition: data not shown
T2 construct: purchased Sigma-Aldrich
Procedure: To determine the inhibition constant (Ki ) of the peptide, firstly the Michaelis-Menten constant (Km ) for the Abz-FRSSRQ-EDDnp hydrolysis by elastase-1 was obtained. For this, the concentrations of 2.5 µM, 5.0 µM, 10.0 µM, 15.0 µM, 25.0 µM and 50.0 µM of the substrate were used, in Tris 50 mM, NaCl 50 mM pH 8.0. Initial rates were determined at an enzyme concentration (100 ng) that would hydrolyze less than 10% of the substrate. The kinetic parameters (Km and Vmax ) were calculated by Michaelis-Menten equation using the Grafit 5 software (Erithacus Software, West Sussex, UK), as previously described. All experiments were performed in duplicate.
The Kunitz-type peptide quantification was determined by the BCA method using insulin as standard (5 µg/µL, 10 µg/µL, 25 µg/µL, 50 µg/µL e 100 µg/µL). To determine the mechanism of action of the Kunitz-type inhibitor, two concentrations of Abz-FRSSRQ-EDDnp, 6.8 µM and 3.4 µM, and two concentrations of the purified peptide, 0.63 µM and 0.94 µM, were utilized. For each substrate concentration it was made a control test (absence of the peptide). The assays were performed in duplicate and during all experiment the consumption of substrate was maintained under 10%. The reactions were monitored in the fluorimeter, as described above, and were analyzed in the Grafit 5 software (Erithacus Software, West Sussex, UK). The mechanism and the inhibition constants were determined through the Dixon plot (1/V x [I]) equation [20]. The plot was made in the software GraphPad Prism 5.

elastase-1 [3] = biological target: T2, elastase-1; test: Stability test of peptides against hydrolysis by elastase-1 (RP-HPLC); format: in vitro ADME; conditions: data not shown; for Stability against hydrolysis by elastase-1: peptide 50 mM (so in the source), elastase-1 300 ng, Tris 50 mM, NaCl 50 mM pH 8.0, 37 °C, 4 hours and overnight, C18 RP-HPLC, UV 214 nm, duplicate
Procedure: Samples containing only the synthetic peptides were used as negative control. After incubation, samples were analyzed, in duplicate by reverse phase chromatography on HPLC, using a Shim-pack C-18 column in the same conditions described above.

[4] = biological target: T1, recombinant human cathepsin L; test: Stability test of peptides against hydrolysis by cathepsin L (RP-HPLC); format: in vitro ADME; conditions: cathepsin L 10 ng, NaCl 200 mM, EDTA 5 mM, DTT 6.25 mM pH 5.5; 37 °C; 4 hours and overnight (16 hours); C18 RP-HPLC, UV 214 nm; duplicate; data not shown
Procedure: The synthetic peptides PEP1 and PEP2 (50 mM) were incubated with elastase-1 (300 ng), in Tris 50 mM, NaCl 50 mM pH 8.0 buffer, and cathepsin L (10 ng), in 50 mM, NaCl 200 mM, EDTA 5 mM, DTT 6.25 mM pH 5.5 buffer, at 37 °C in two different time intervals, 4 hours and overnight. Samples containing only the synthetic peptides were used as negative control. After incubation, samples were analyzed, in duplicate by reverse phase chromatography on HPLC, using a Shim-pack C-18 column in the same conditions described above.
Target sequence in this assay (P07711 114-333): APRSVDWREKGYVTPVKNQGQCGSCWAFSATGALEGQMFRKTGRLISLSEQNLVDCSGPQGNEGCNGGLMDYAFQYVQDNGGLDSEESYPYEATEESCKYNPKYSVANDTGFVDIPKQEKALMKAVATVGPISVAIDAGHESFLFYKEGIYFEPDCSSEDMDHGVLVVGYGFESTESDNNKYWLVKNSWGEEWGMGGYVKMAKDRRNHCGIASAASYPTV

chymotrypsin = test: Chymotrypsin inhibition; format: biochemical; conditions: data not shown
potassium channel = conditions: read-out: Potassium channel blocker activity IC50; cited from earlier work
trypsin = test: Trypsin inhibition; format: biochemical; conditions: data not shown
[5] = biological target: T3, pancreatic elastase (EC 3.4.21.36) (UniProt P00772 27-266); test: enzyme inhibition kinetics (fluorimetric, Dixon plot); elastase-1 (100 ng) with the FRET substrate Abz-FRSSRQ-EDDnp at 3.4 and 6.8 µM, purified peptide at 0.63 and 0.94 µM; Tris 50 mM, NaCl 50 mM, pH 8.0, 37 °C; duplicates; mechanism found uncompetitive; conditions: both partners purified
T3 construct: also called elastase-1; source: bought: Sigma-Aldrich
T3 sequence (P00772 27-266): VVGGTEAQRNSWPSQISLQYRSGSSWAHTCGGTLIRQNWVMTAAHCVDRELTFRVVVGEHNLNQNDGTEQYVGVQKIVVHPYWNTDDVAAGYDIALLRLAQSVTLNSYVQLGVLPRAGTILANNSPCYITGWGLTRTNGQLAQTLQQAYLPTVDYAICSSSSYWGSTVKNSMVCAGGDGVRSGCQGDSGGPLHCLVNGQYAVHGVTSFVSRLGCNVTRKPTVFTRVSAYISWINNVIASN

T2 sequence (P00772 27-266): as above

Molecule: Cbz-Phe-Arg-{AMC}
- Km ([1]; Michaelis-Menten fit, Std. Error 0.4867 in its own column, read-out: Km, fit parameter value (Additional file 4B), cathepsin L): 2.65 µM
- Km ([1]; substrate 1-20 µM, cathepsin L 1 ng, pH 5.5 buffer, Grafit 5, duplicate, read-out: Michaelis-Menten constant (Km) of substrate hydrolysis by cathepsin L): 2.65 µM

Molecule: N=C(N)NCCC[C@H](NC(=O)[C@H](Cc1ccccc1)NC(=O)c1ccccc1N)C(=O)N[C@@H](CO)C(=O)N[C@@H](CO)C(=O)N[C@@H](CCCNC(=N)N)C(=O)N[C@@H](CCC(N)=O)C(=O)NCCNc1ccc([N+](=O)[O-])cc1[N+](=O)[O-] [Abz-FRSSRQ-EDDnp, reference compound] (H-[2Abz]FRSSRQ-EDDnp)
- Km (elastase-1 [2]; Michaelis-Menten fit, Std. Error 2.2721 in its own column, read-out: Km, fit parameter value (Additional file 4A), elastase-1): 10.6 µM
- Km (elastase-1 [2]; substrate 2.5-50.0 µM, elastase-1 100 ng, Tris 50 mM, NaCl 50 mM pH 8.0, Grafit 5, duplicate, read-out: Michaelis-Menten constant (Km) of substrate cleavage by elastase-1): 10.7 µM

Molecule: C[C@@H](O)[C@H](NC(=O)[C@H](Cc1ccccc1)NC(=O)CNC(=O)[C@H](CCC(=O)O)NC(=O)[C@H](CS)NC(=O)[C@H](CCC(N)=O)NC(=O)[C@H](CCCCN)NC(=O)[C@@H](N)CCCCN)C(=O)N[C@@H](Cc1c[nH]c2ccccc12)C(=O)N[C@@H](CO)C(=O)NCC(=O)N[C@@H](CS)C(=O)NCC(=O)NCC(=O)N[C@@H](CC(N)=O)C(=O)N[C@@H](CO)C(=O)O [PEP1] (H-KKQCEGFTWSGCGGNS-OH)
- Stability against hydrolysis by elastase-1 (elastase-1 [3]): not stable
- Stability against hydrolysis by cathepsin L [4]: hydrolyzed

Molecule: CC[C@H](C)[C@@H]1NC(=O)[C@H](CCCCN)NC(=O)[C@H](CCC(N)=O)NC(=O)[C@H](Cc2ccc(O)cc2)NC(=O)[C@@H](NC(=O)[C@H](CCCNC(=N)N)NC(=O)CNC(=O)[C@@H]2CCCN2)CSSC[C@@H](C(=O)NCC(=O)NCC(=O)O)NC(=O)CNC(=O)[C@H](CO)NC(=O)[C@H](Cc2c[nH]c3ccccc23)NC(=O)[C@H]([C@@H](C)O)NC(=O)[C@H](Cc2ccccc2)NC(=O)CNC(=O)[C@H](CCC(=O)O)NC(=O)[C@H](C(C)C)NC(=O)[C@H](CCC(N)=O)NC(=O)[C@H](CCCCN)NC(=O)[C@H](CCCCN)NC(=O)[C@H](CCCCN)NC(=O)[C@H](CCC(N)=O)NC(=O)[C@H](CC(N)=O)NC(=O)[C@H](Cc2ccc(O)cc2)NC(=O)[C@H](Cc2ccc(O)cc2)NC(=O)[C@H](Cc2ccccc2)NC(=O)[C@H](C)NC(=O)[C@@H]2CCCN2C1=O [PEP2] (H-PGRCYQKIPAFYYNQKKKQVEGFTWSGCGG-OH; disulfide 4-28)
- Stability against hydrolysis by elastase-1 (elastase-1 [3]): not stable
- Ki ([1]; Dixon plot, Z-FR-MCA 5.2 and 7.8 µM (2 and 3 Km), PEP2 0, 1.0, 2.5 and 5.0 µM, cathepsin L 1 ng, pH 5.5 buffer with DTT 6.25 mM, duplicate, read-out: Inhibition constant (Ki) for cathepsin L): 1960 nM
- Stability against hydrolysis by cathepsin L [4]: not degraded

Molecule: Kunitz-type serine protease inhibitor homolog dendrotoxin I (QPLRKLCILHRNPGRCYQKIPAFYYNQKKKQCEGFTWSGCGGNSNRFKTIEECRRTCIRK) [Kunitz-type peptide]
- Mechanism of inhibition of elastase-1 (elastase-1 [2]; Dixon plot (1/V versus [I]), parallel lines): uncompetitive inhibitor
- Elastase inhibition (elastase-1 [2]; peptide 1.26 µM): above 70%
- Elastase inhibition (elastase-1 [2]; peptide 3.52 µM): above 70%
- Inhibition of chymotrypsin (chymotrypsin): no other serine protease inhibitions
- IC50 (potassium channel): 0.13 to 50 nM
- Stability on incubation with elastase-1 (substrate or not) (elastase-1 [3]; overnight incubation with elastase-1): not an elastase-1 substrate
- Inhibition of trypsin (trypsin): no other serine protease inhibitions

B1: Kunitz-type serine protease inhibitor homolog dendrotoxin I (peptide)
chain: QPLRKLCILHRNPGRCYQKIPAFYYNQKKKQCEGFTWSGCGGNSNRFKTIEECRRTCIRK
notes: also called Kunitz-type peptide; Kunitz peptide
- Ki [5]: 8000 nM
